# Results published in US5583155A, “6-amino-1,2-benzopyrones useful for treatment of viral diseases” (Octamer, Inc., priority 1994, dated 1996).
# “Also recorded” adds a separate entry of the source. Read-outs that look alike come from different tables or passages of the source.
# Columns and labels:
# [1] = test system: RSV; assay: microbe, parasite or virus in culture; assay type: cell-based, Respiratory Syncytium virus (patient isolate)
# [2] = test system: CMV; assay: microbe, parasite or virus in culture; assay type: cell-based, human cytomegalovirus (patient isolate)
# [3] = test system: HIV in MT-2 cells; assay: HIV syncytia formation in MT-2 cells; assay type: cell-based; settings: 3 mM
# Protocol: (§1) Whereas the activation of latent HIV by various DNAs and its prevention by 6-ABP were shown above, the following experiments examine the effects of 6-ABP on the direct propagation of highly virulent HIV strain obtained from NIH in Molt III cells, using cell supernatant as source of virus on AA-2 and MT2 cells in culture. More than 60 tests were performed varying virus titers, time of exposure, and exposure to 6-ABP.
# Equivalent results, shown in FIG. 9, were obtained with MT-2 cells. In FIG. 9, the inhibition of syncytia formation was quantitatively assayed. […] At very high HIV titre, at 1:100 dilution the untreated syncitia formation was 150 times higher than in treated culture.
# [4] = test system: human lymphoblasts; assay: Lymphoblast DNA synthesis / viability (3H-thymidine incorporation); assay type: cell-based
# Protocol: In FIGS. 11A through 11E, normal lymphoblasts stimulated with PHA are infected with HIV and at the same time are submitted to various concentrations from 0-10 mM 6-ABP. After the short exposure of 18 hours, both HIV and 6-ABP are removed, FIGS. 11A, 11C, 11E and the 6-ABP in the same concentrations is readded up to 4 days to cultures shown in FIGS. 11B and 11D. At 4 days, proliferation index measured by ^3 H-thymidine incorporation is determined in FIGS. 11A and 11B. […] In FIGS. 11C and […], the viral synthesis or inhibition is measured by p 24 assay.
# The viability of lymphoblasts was measured by incubating the cells exposed to IL-2, HIV and to 6-ABP with H3-thymidine for 6 hours on the sixth day of culture and determining the amount of cpm incorporated per 100,000 cells placed in culture.
# In order to ascertain that relatively short 18 hours exposure of human lymphoblasts selectively blocks HIV replication and has minimal effects on DNA synthesis of lymphoblasts, the proliferation, p24 and reverse transcriptase experiments were also performed, as shown in FIG. 11.
# In panel A (top) DNA synthesis of lymphoblasts is assayed as a function of 6-ABP concentration. In panel A' (lower curve) the decay of HIV replication is simultaneously determined, and in A "panel" reverse transcriptase was assayed. All these are accepted assays for HIV replication.
# [5] = test system: HSV-2 strain G; assay: microbe, parasite or virus in culture; assay type: cell-based, Herpes simplex virus type 2
# [6] = test system: Enterovirus (ECHO-11); assay: microbe, parasite or virus in culture; assay type: cell-based
# [7] = test system: HIV-LTR; assay: cells
# Protocol: All chimeric CAT constructions were prepared in pCATB' containing the CAT structural gene without eukaryotic promoter sequence.
# DNA transfection was performed with DEAE dextran. Briefly, U937 cells (5×10^6) were exposed for 60 min. at 37° C. to a mixture of DEAE Dextran (1.05 ug/ml) and DNA in STBS buffer (25 mM Tris HCl, having pH 7.5, 137 mM NaCl, 0.5 MgCl2, 0.7 mM CaCl2 and 5 mM KCl and 0.6 mM Na2 HPO4) in 15 ml snap cap 6×35 mm polyethylene dishes from Costar, Cambridge, Mass., at 5×10^6 cells per well. Routinely, transfection mixtures contained 1.0 ug of target supercoiled plasmid and 0.1 ug DNA to equalize nucleic acid concentration effects. Transfected cells were harvested 40 to 44 hr post transfection in CAT harvest buffer (40 mM Tris, having pH 7.4 150 mM NaCl, 1 mM EDTA) and stored at -20° C. until assayed.
# Routine assay conditions employed 0.2 uCi of [^14 C]-chloramphenicol substrate and an incubation time of 60 min. For quantitative estimates of CAT activity and fold activation, the appropriate sections were cut from the thin-layer chromatography scintillation fluid added and the radioactivity was counted in a scintillation counter. Quantitative comparisons were made by measuring the amounts of chloramphenicol-acetate product with enzyme concentrations and time. pSV CAT was used as a positive control, and the parent (pCATB') was used as a negative control. […]
# [8] = test system: HIV in AA-2 cells; assay: HIV replication in AA-2 cells (p 24 ELISA); assay type: cell-based; settings: 3 mM
# Protocol: The effects of 3 mM 6-ABP on HIV replication in AA-2 cells using the same experimental set-up as for FIG. 7 was followed by the conventional analysis of p 24 formation by automated ELISA tests. The results are shown in FIG. 8, where as in FIG. 7, the influence of varying HIV concentrations infecting HIV dilution, from 1:100 to 1:1600 or p 24 input, as shown in graph, was monitored.
# [9] = test system: HIV in AA-2 cells; assay: HIV propagation in AA-2 cells (cytopathogenicity); assay type: cell-based; settings: for inhibition at 3000 µM: varying HIV dilutions, read-out: HIV growth inhibition in AA-2 cells
# Protocol: as §1
# The effect of 1 and 3 mM 6-ABP on the rate of HIV propagation is assayed by cytopathogenicity at a fixed HIV dilution 1:1600.
# FIG. 7 illustrates the effect of 3 mM 6-ABP on HIV growth inhibition in AA-2 cells after 3 days and 6 days. The culture was exposed to 3 mM of the drug at varying HIV dilutions. 6-ABP concentration acting for 3 or 6 consecutive days on AA-2 cells is depicted as a function of virus concentration (given as HIV dilution on the abscissa).
# [10] = test system: Influenza virus; assay: microbe, parasite or virus in culture; assay type: cell-based, Influenza virus (patient isolate)
# [11] = test system: HIV in U937 cells; assay: HIV growth in U937 cells without activator (syncytium-forming assay); assay type: cell-based, HIV-1
# Protocol: In order to assess a possible direct effect of the drug on the growth of HIV, experiments shown in FIG. 3 were reproduced, except that conditions of virus titration (by SFU) were refined, to detect relatively low virus titers.
# Transfection was 24 hours before HIV infection.
# [12] = 1 mM 6-ABP, 24 hours before infection
compound,measurement,setting,value
"Nc1ccc2oc(=O)ccc2c1 [6-ABP, 6-amino-1,2-benzopyrone]",Virus Titer +6-ABP (RSV),[1]; [12],1 × 10^5 TCID50
same,effect on RSV growth,[1]; 6-ABP treatment,no effect
same,inhibition at 1000 µM,"[1]; human respiratory syncytial virus, 1 mM 6-ABP, 24 hours before infection",0%
same,Virus Titer +6-ABP (CMV),[2]; [12],1 × 10^3 TCID50
same,effect on CMV growth,[2]; 6-ABP treatment,effectively inhibits CMV growth
same,inhibition at 1000 µM,"[2]; Human betaherpesvirus 5, 1 mM 6-ABP, 24 hours before infection",90%
same,HIV production / syncytia formation in MT-2 cells,[3],nearly completely suppressed HIV production
same,untreated syncytia formation relative to treated culture,[3]; HIV titre 1:100 dilution,150 times
same,viability of lymphoblasts,[4]; 4 consecutive days exposure,viability of lymphoblasts was not affected by the drug
same,DNA synthesis of lymphoblasts,"[4]; 18 hours exposure, FIG. 11A",does not influence genomic DNA synthesis; also recorded: did not effect the DNA synthesis; also recorded: cellular DNA synthesis virtually unaffected
same,DNA synthesis of lymphoblasts,"[4]; 4 days exposure, FIG. 11B",temporarily also inhibited; also recorded: inhibitory effect on lymphoblast DNA synthesis
same,Virus Titer +6-ABP (HSV-2),[5]; [12],2 × 10^5 PFU per ml
same,"effect of time of drug addition, HSV-2 (G)","[5]; 1, 5 and 10 mM, zero time vs 4 hours after infection",essentially no differences found between the two modes of drug exposure
same,inhibition of HSV-2 strain G growth,"[5]; 1-10 mM, 24 hours pretreatment, HEp-2 cells",90-97%
same,inhibition at 1000 µM,"[5]; Human alphaherpesvirus 2, 0 h, 1 mM at 0 hours (time of infection), read-out: inhibition of HSV-2 growth",85%
same,inhibition at 1000 µM,"[5]; Human alphaherpesvirus 2, 1 mM 6-ABP, 24 hours before infection, read-out: % Inhibition (HSV-2), Table 1",87.5%
same,inhibition at 1000 µM,"[5]; Human alphaherpesvirus 2, 1 mM, 24 hours pretreatment, read-out: inhibition of HSV-2 growth",90%
same,inhibition at 1000 µM,"[5]; Human alphaherpesvirus 2, 4 h, 1 mM at 4 hours post infection, read-out: inhibition of HSV-2 growth",72%
same,inhibition at 200 µM,"[5]; Human alphaherpesvirus 2, HEp-2, 0.2 mM, 24 hours pretreatment, HEp-2 cells, read-out: inhibition of HSV-2 strain G growth",~45%
same,Virus Titer +6-ABP (Enterovirus),"[6]; 1 mM 6-ABP, 24 hours before infection, ECHO-11",1.6 × 10^6 TCID50
same,effect on Enterovirus growth,[6]; 6-ABP treatment,no effect
same,inhibition at 1000 µM,"[6]; Enterovirus, 1 mM 6-ABP, 24 hours before infection, ECHO-11",0%
same,fold induction at 5000 µM,"[7]; Human immunodeficiency virus 1, U-937, read-out: Fold Activation, HSV-IE-110 + 6-ABP, 5 mM 6-ABP, HSV-IE-110",20
same,fold induction at 2000 µM,"[7]; Human immunodeficiency virus 1, U-937, read-out: HIV-LTR-CAT activation by IE-110 after treatment, 2 mM 6-ABP, FIG. 5, 344-fold activation without drug",0.4 to 0.9
same,HIV replication,[8]; beyond a virus dilution of 1:1400,profoundly inhibited HIV replication
same,p 24 generation,"[8]; day 4, 1:1400 virus dilution",completely suppressed p 24 generation
same,HIV propagation in AA-2 cells,"[9]; 1 mM, HIV dilution 1:1600",able to suppress the HIV propagation only slightly
same,"HIV replication, AA-2 cells","[9]; 3 mM, Example 5",complete abrogation of HIV replication
same,HIV propagation in AA-2 cells,"[9]; 3 mM, day 6, HIV dilution 1:1600",completely eliminates HIV propagation
same,inhibition at 3000 µM,"[9]; Human immunodeficiency virus 1, 72 h, 3 mM, 3 days",70 to 100%
same,inhibition at 3000 µM,"[9]; Human immunodeficiency virus 1, 144 h, 3 mM, 6 days",25 to 100%
same,Virus Titer +6-ABP (Influenza),"[10]; 1 mM 6-ABP, 24 hours before infection, highest dilution that caused 50% hemagglutination",1 × 10^4
same,effect on Influenza virus growth,[10]; 6-ABP treatment,no effect
same,inhibition at 1000 µM,"[10]; unidentified influenza virus, read-out: % Inhibition (Influenza)",0%
same,effect on HIV growth without activator,"[11]; 3 mM, FIGS. 3 and 4",completely inhibit any viral growth; also recorded: significant effect on HIV growth
same,effect on HIV growth in absence of activating HSV gene,[11]; Table 2 experiment,significant reduction in HIV growth
same,"HIV growth, U937 + 6-ABP","[11]; day 3, no activator",13 SFU/ml
same,"HIV growth, U937 + 6-ABP","[11]; day 5, no activator",10 SFU/ml
same,"HIV growth, U937 + 6-ABP","[11]; day 6, no activator",10 SFU/ml
same,"HIV growth, U937 + 6-ABP","[11]; day 8, no activator",10 SFU/ml
